# Columns and labels:
# CGA-snLuc cells = settings: MEAlt assays; low levels of adulterant
# Source text: (§1) To perform this assay, cells from the cell lines described in Example 1 were thawed using standard procedures and plated on Vitronectin coated wells of a 96-well plate in Essential 8 Flex medium with Revitacell supplement. Plating density for SOX2-snLuc cells was approximately 20,000 cells per well and for the CGA-snLuc cells, approximately 15,000 cells per well. Empty wells were filled with PBS to reduce variation in Nanoluciferase concentration related to evaporation. Cells were allowed to recover for 7-18 hours prior to exposure to test media.
# For CGA-snLuc cells the activation of the reporter required medium that supported trophectoderm/placental differentiation, such as BAP medium. […] DAF-BAP contained DMEM with 25 mM HEPES and 4.5 g/L Glucose and without L-Glutamine, 100 ng/ml BMP-4, 1 μM A83-01, 0.1 μM PD173074, 5 mg/mL of AlbumiNZ Bovine Albumin Low Free Fatty Acid, and 40 μM forskolin. Media was pre-warmed prior to forskolin addition to prevent precipitation.
# Following recovery from thawing, media was exchanged to the respective test medium for each cell line. […] Secreted Nanoluciferase was detected by removing 10% of the culture media and mixing in a white assay plate with substrate and buffer using the Promega Nano-Glo Luciferase Assay kit. Luminescence was measured with a BioTek Cytation 1 imaging reader. […]
# SOX2-snLuc cells = settings: MEAlt assays; low levels of adulterant
# Source text: as §1
# For SOX2-snLuc cells the test media was Essential 8 Flex.
# Following recovery from thawing, media was exchanged to the respective test medium for each cell line. […] In the case of SOX2-snLuc cells, a baseline read of Luciferase expression was optionally performed prior to media exchange to assess variations in plating density or post-thaw recovery. Exposure to test medium was for 24-96 hours for SOX2-snLuc cells and 48-96 hours for CGA-snLuc cells. Secreted Nanoluciferase was detected by removing 10% of the culture media and mixing in a white assay plate with substrate and buffer using the Promega Nano-Glo Luciferase Assay kit. Luminescence was measured with a BioTek Cytation 1 imaging reader.
# The assay was also tested in the context of detecting an adulterant, ethylene glycol (EG), that is known to affect viability of mouse embryos.
Compound,detection of adulterant by the MEAlt assay (CGA-snLuc cells),detection of adulterant by the MEAlt assay (SOX2-snLuc cells)
C=O [formaldehyde],successfully detect low levels,successfully detect low levels
triton-x-100,successfully detect low levels,successfully detect low levels

# — patent publication US20250250646A1, “DUAL GENETIC REPORTERS IN HUMAN PLURIPOTENT CELLS FOR USE AS ALTERNATIVE TO MOUSE EMBRYO ASSAY” (Nexpring US Opco Inc., priority 2022, published 2025)
